According to PubChem BioAssay (NCI):
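GI50 = concentration required for 50% inhibition of growth. Definition used: TGI = concentration required for complete inhibition of growth.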

Legend:
Experiment in all cases: NCI tumour cell line growth inhibition, 384-well format
RXF 393 renal = tested on: RXF 393 renal
MOLT-4 leukemia = tested on: MOLT-4 leukemia
MDA-MB-468 breast = tested on: MDA-MB-468 breast
NCI-H23 lung = tested on: NCI-H23 lung
UACC-62 melanoma = tested on: UACC-62 melanoma
SF-268 CNS = tested on: SF-268 CNS
MALME-3M melanoma = tested on: MALME-3M melanoma
U251 glioblastoma = tested on: U251 glioblastoma
SNB-19 CNS = tested on: SNB-19 CNS
UO-31 renal = tested on: UO-31 renal
SK-MEL-5 melanoma = tested on: SK-MEL-5 melanoma
NCI-H460 NSCLC = tested on: NCI-H460 NSCLC
HOP-62 NSCLC = tested on: HOP-62 NSCLC

Structure (SMILES): C[C@H](NC(=O)c1c(C(F)F)nn(C)c1Oc1cccc(C(F)(F)F)c1)c1ccc(C(=O)O)cc1
- GI50 (RXF 393 renal): > 100 µM
- TGI (RXF 393 renal): > 100 µM
- GI50 (MOLT-4 leukemia): > 100 µM
- TGI (MOLT-4 leukemia): > 100 µM
- GI50 (MDA-MB-468 breast): > 100 µM
- TGI (MDA-MB-468 breast): > 100 µM
- GI50 (NCI-H23 lung): > 100 µM
- TGI (NCI-H23 lung): > 100 µM
- GI50 (UACC-62 melanoma): > 100 µM
- TGI (UACC-62 melanoma): > 100 µM
- GI50 (SF-268 CNS): > 100 µM
- TGI (SF-268 CNS): > 100 µM
- GI50 (MALME-3M melanoma): > 100 µM
- TGI (MALME-3M melanoma): > 100 µM
- GI50 (U251 glioblastoma): > 100 µM
- TGI (U251 glioblastoma): > 100 µM
- GI50 (SNB-19 CNS): > 100 µM
- TGI (SNB-19 CNS): > 100 µM
- GI50 (UO-31 renal): > 100 µM
- TGI (UO-31 renal): > 100 µM
- GI50 (SK-MEL-5 melanoma): > 100 µM
- TGI (SK-MEL-5 melanoma): > 100 µM
- GI50 (NCI-H460 NSCLC): > 100 µM
- TGI (NCI-H460 NSCLC): > 100 µM
- GI50 (HOP-62 NSCLC): > 100 µM
- TGI (HOP-62 NSCLC): > 100 µM
